Entries after “also recorded” stand apart in the source; their conditions may differ.
How the values were obtained:
[1] = tested on: lymphocytes from the whole spleen of ICR mice; assay: Effect on survival rate of lymphocytes (MTT); type: cell-based; details: for MTT Average of OD values: 48-hour culture
Method: 5.1.1. Mice were sacrificed by removing spondyle, spleen was cut off and then ground to obtain single cell suspension. After erythrocytes were got rid of the remained cells were diluted to […] with RPMI-1640 culture solution containing 10% fetal bovine serum. In addition, all these performances must be sterile.
5.1.2. 200 μl solution in total volume (including 100 μl the cell suspension, 50 μl sample and 50 μl culture solution containing 10% fetal bovine serum) was dispensed on 96-well plate. 100 μl the cell suspension and 100 μl culture solution (200 μl in total volume) were added as negative control.
5.1.3. The cell was cultured at 37° C. and under 5% CO2 in incubator for 48 hours, and added MTT to the plate at […] 6 to 7 hours before the end of culture.
5.1.4. 100 μl of supernatant was sucked out when the culture was ended, and then lytic solution was added at 100 μl/well. The plates were kept in incubator for 6 to 7 hours. The survival rate was calculated according to the OD value (at 570 nm) measured by microplate reader.
Effect of different concentrations of Anemonin on survival rate of lymphocytes were determined, said lymphocytes were from the whole spleen of ICR mice after 48-hour culture.

IL-2 = assay: Cytokine production from splenocytes, ConA stimulation, IL-2 (ELISA); type: cell-based, murine; details: 24 h
Method: For splenocyte cytokine production assay, 5×10^6 cells per well were inoculated into a 24-well tissue culture plate with ConA (5 mg/L) or Sac (1:10000) stimulation. Different concentrations of Anemonin were added in a final volume of 2 ml. Cells were incubated at 37° C., 5% CO2 for 24 h and supernatants were harvested, IFN-γ, IL-10, IL12 (p40) and IL-2 in supernatants were measured by the sandwich enzyme-linked immunosorbent assay (ELISA) as specified by the manufacturer (BD Bioscience pharmingen, US). Concentrations of the cytokine productions were calculated based on standard curves obtained from serial dilutions of murine cytokines (r IFN-γ, rIL-10, rIL12, rIL-2). As shown in Tables C-3 and C-4, high-dose Anemonin (1-100 μg/ml) inhibited all kinds of cytokine release induced by ConA or Sac.

[2] = tested on: dimethylbenene-induced ear swelling; assay: Acute ear edema of mice induced by dimethylbenene; type: in vivo; details: for Ear swellin: 50 μl on ear, two hours after dimethylbenene
Method: The mice were randomly divided into 5 groups. Thirty minutes and sixty minutes after applying dimethylbenene (50 μl) to the anterior and posterior surfaces of the right ear, 25% ethanol (50 μl), the linimene solutions of anemonin (0.05, 0.5, 5 mg/ml, 50 μl) and FAA (a positive control) were applied on the same ears of mice respectively. The left ear was considered as control. Two hours after dimethylbenene application, mice were killed and both ears were removed. Circular sections were taken, using a 9 mm-diameter borer, and weighed. The increase in weight caused by the irritant was measured by subtracting the weight of the untreated left ear section from that of the treated right ear section.

[3] = tested on: carrageenan-induced paw edema; assay: Acute hind paw edema of rats induced by carrageenan; type: in vivo
Method: The animals were injected subcutaneously with carrageenan (10 μl of 1% solution in saline) into the right paw. Anti-inflammatory properties of external anemonin were studied by applying with various liniment solution of anemonin (0.125, 0.5, 2 mg/ml, 0.5 ml) for 2 h immediately after administration of carrageenan. The rats of control group were treated with the same volume of solvent (25% ethanol). The paw volumes of rats were measured at 0, 2 h, 3 h, 4 h, 5 h, 6 h after injection of carrageenan. The paw edema was represented by subtracting the volume of the untreated same paw from that of the treated paw.

[4] = tested on: staphylococcus, streptococcus, Bacillus diphtheriae, Mycobacterium tuberculosis, and E. coli; details: cited from earlier work

## O=C1C=CC2(CCC23C=CC(=O)O3)O1 (stereo not drawn) [Anemonin, anemonin]
[1]; 0.001 μg/ml, Table B-2
  MTT Average of OD values: 0.087
  Decrease of survival rate of lymphocytes Yes/No: Yes
[1]; 0.01 μg/ml, Table B-2
  MTT Average of OD values: 0.068
  Decrease of survival rate of lymphocytes Yes/No: Yes
[1]; 0.1 μg/ml, Table B-2
  MTT Average of OD values: 0.061
  Decrease of survival rate of lymphocytes Yes/No: Yes
[1]; 1 μg/ml, Table B-1
  MTT Average of OD values: 0.052
  Decrease of survival rate of lymphocytes Yes/No: Yes
[1]; 1 μg/ml, Table B-2
  MTT Average of OD values: 0.002
  Decrease of survival rate of lymphocytes Yes/No: Yes
[1]; 10 μg/ml, Table B-1
  MTT Average of OD values: 0.002
  Decrease of survival rate of lymphocytes Yes/No: Yes
[1]; 10 μg/ml, Table B-2
  MTT Average of OD values: 0.008
  Decrease of survival rate of lymphocytes Yes/No: Yes
[1]; 100 μg/ml, Table B-1
  MTT Average of OD values: 0.163
[1]; 100 μg/ml, Table B-2
  MTT Average of OD values: 0.145
[1]; final concentration range from 0.001 μg/ml to 10 μg/ml
  inhibition in survival rate of the lymphocytes: obvious inhibition; also recorded: obvious effect
IL-2; 0.001 μg/ml
  IL-2: 482 ± 7 pg/mL
IL-2; 0.01 μg/ml
  IL-2: 479 ± 5 pg/mL
IL-2; 0.1 μg/ml
  IL-2: 461 ± 2 pg/mL
IL-2; 1 μg/ml
  IL-2: 190 ± 2 pg/mL
IL-2; 10 μg/ml
  IL-2: 22 ± 1 pg/mL
IL-2; 100 μg/ml
  IL-2: 28 ± 1 pg/mL
[2]; 0.05 mg/ml liniment
  Ear swellin: 18 ± 7 mg
[2]; 0.5 mg/ml liniment
  Ear swellin: 16 ± 4 mg
[2]; 5 mg/ml liniment
  Ear swellin: 12 ± 4 mg
[2]; 0.05-5 mg/ml applied
  ear edema formation: inhibited in a dose-dependent manner
[2]; doses of 2.5-25 μg/ear
  inhibitory effect on ear edema: statistically significant
[3]; 0.125 mg/ml liniment, 2 h
  Paw edema: 0.24 ± 0.06 mL
[3]; 0.125 mg/ml liniment, 3 h
  Paw edema: 0.20 ± 0.09 mL
[3]; 0.125 mg/ml liniment, 4 h
  Paw edema: 0.33 ± 0.08 mL
[3]; 0.125 mg/ml liniment, 5 h
  Paw edema: 0.36 ± 0.11 mL
[3]; 0.125 mg/ml liniment, 6 h
  Paw edema: 0.39 ± 0.08 mL
[3]; 0.5 mg/ml liniment, 2 h
  Paw edema: 0.24 ± 0.13 mL
[3]; 0.5 mg/ml liniment, 3 h
  Paw edema: 0.21 ± 0.08 mL
[3]; 0.5 mg/ml liniment, 4 h
  Paw edema: 0.25 ± 0.07 mL
[3]; 0.5 mg/ml liniment, 5 h
  Paw edema: 0.35 ± 0.10 mL
[3]; 0.5 mg/ml liniment, 6 h
  Paw edema: 0.40 ± 0.08 mL
[3]; 2 mg/ml liniment, 0.5 ml for 2 h, 2 h after carrageenan
  Paw edema: 0.25 ± 0.08 mL
[3]; 2 mg/ml liniment, 3 h
  Paw edema: 0.16 ± 0.08 mL
[3]; 2 mg/ml liniment, 4 h
  Paw edema: 0.25 ± 0.07 mL
[3]; 2 mg/ml liniment, 5 h
  Paw edema: 0.30 ± 0.06 mL
[3]; 2 mg/ml liniment, 6 h
  Paw edema: 0.31 ± 0.10 mL
[3]; liniment 0.125, 0.5, 2 mg/ml, dose-dependent manner
  paw edema development: significantly reduced
[4]
  inhibitory against bacteria: inhibitory

— patent US7297353B2, “Use of anemonin for treating aseptic inflammations” (priority 2000, dated 2007)
